Assay results published in patent publication US20260285850A1, “SUBSTITUTED OXAZOLIDINONES AND IMIDAZOLINONES AS HERBICIDES” (FMC CORPORATION, priority 2023, published 2026).

Key:
Type in all cases: in vivo
[1] = tested on: barnyardgrass (Echinochloa crus-galli); assay: Test A preemergence soil spray, visual injury rating 0-100; conditions: 10 days
Method in brief: (§1)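 Plants were grown in a loam soil-sand blend and treated with test chemical in a non-phytotoxic solvent mixture containing surfactant, either sprayed on soil preemergence or applied postemergence to 2-10 cm plants. After 10 days in a greenhouse, injury was scored visually against untreated controls, 0 meaning no effect and 100 complete control.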

[2] = tested on: blackgrass (Alopecurus myosuroides); assay: as above; conditions: 10 days
Method in brief: as §1

[3] = tested on: corn (Zea mays); assay: as above; conditions: 10 days
Method in brief: as §1

[4] = tested on: green foxtail (Setaria viridis); assay: as above; conditions: 10 days
Method in brief: as §1

[5] = tested on: kochia (Bassia scoparia); assay: as above; conditions: 10 days
Method in brief: as §1

[6] = tested on: oat, wild (wild oat, Avena fatua); assay: as above; conditions: 10 days
Method in brief: as §1

[7] = tested on: ragweed (common ragweed, Ambrosia artemisiifolia); assay: as above; conditions: 10 days
Method in brief: as §1

[8] = tested on: ryegrass, Italian (italian ryegrass, Lolium multiflorum); assay: as above; conditions: 10 days
Method in brief: as §1

[9] = tested on: soybean (Glycine max); assay: as above; conditions: 10 days
Method in brief: as §1

[10] = tested on: wheat (Triticum aestivum); assay: as above; conditions: 10 days
Method in brief: as §1

[11] = tested on: barnyardgrass (Echinochloa crus-galli); assay: Test A postemergence application, visual injury rating 0-100
Method in brief: as §1

[12] = tested on: blackgrass (Alopecurus myosuroides); assay: as above
Method in brief: as §1

[13] = tested on: corn (Zea mays); assay: as above
Method in brief: as §1

[14] = tested on: galium (catchweed bedstraw, Galium aparine); assay: as above
Method in brief: as §1

[15] = tested on: green foxtail (Setaria viridis); assay: as above
Method in brief: as §1

[16] = tested on: horseweed (Erigeron canadensis); assay: as above
Method in brief: as §1

[17] = tested on: kochia (Bassia scoparia); assay: as above
Method in brief: as §1

[18] = tested on: oat, wild (wild oat, Avena fatua); assay: as above
Method in brief: as §1

[19] = tested on: palmer (palmer amaranth, palmer pigweed, Amaranthus palmeri); assay: as above
Method in brief: as §1

[20] = tested on: ragweed (common ragweed, Ambrosia artemisiifolia); assay: as above
Method in brief: as §1

[21] = tested on: ryegrass, Italian (italian ryegrass, Lolium multiflorum); assay: as above
Method in brief: as §1

[22] = tested on: soybean (Glycine max); assay: as above
Method in brief: as §1

[23] = tested on: wheat (Triticum aestivum); assay: as above
Method in brief: as §1

[24] = tested on: barnyardgrass (Echinochloa crusgalli); assay: Test B flooded paddy test, visual plant response rating 0-100; conditions: 250 g ai/ha, Flood, applied to paddy water, evaluated after 13 days
Method in brief: (§2)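 Visual scores versus untreated controls were recorded 13 days after treatment of greenhouse-held plants. At the 2-leaf stage, pots were flooded 3 cm above the soil surface and compounds added straight to the water.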

[25] = tested on: ducksalad (Heteranthera limosa); assay: as above; conditions: 250 g ai/ha, Flood, applied to paddy water, evaluated after 13 days
Method in brief: as §2

[26] = tested on: rice (Oryza sativa); assay: as above; conditions: 250 g ai/ha, Flood, applied to paddy water, evaluated after 13 days
Method in brief: as §2

[27] = tested on: sedge, umbrella (small-flower umbrella sedge, Cyperus difformis); assay: as above; conditions: 250 g ai/ha, Flood, applied to paddy water, evaluated after 13 days
Method in brief: as §2

[28] = 62 g ai/ha, 0 = no effect, 100 = complete control
[29] = 62 g ai/ha, postemergence, 10 days, 0 = no effect, 100 = complete control
[30] = Postemergence, 16 g ai/ha, greenhouse 10 days, 0 no effect, 100 complete control

CSCCOC(=O)C1=CCC(NC(=O)C2(C)CN(c3cc(F)cc(Cl)c3)C(=O)O2)C1 (centres unmarked) [Compound 135]
Barnyardgrass plant response rating ([1]; 16 g ai/ha, 0 to 100 scale): 20 | Barnyardgrass plant response rating (0-100) [1, 28]: 50 | Blackgrass plant response rating ([2]; 16 g ai/ha, 0 to 100 scale): 0 | Blackgrass plant response rating (0-100) [2, 28]: 20 | Corn plant response rating ([3]; 16 g ai/ha, 0 to 100 scale): 0 | Corn plant response rating (0-100) [3, 28]: 70 | Foxtail, Green plant response rating ([4]; 16 g ai/ha, 0 to 100 scale): 0 | Foxtail, Green plant response rating (0-100) [4, 28]: 80 | Kochia plant response rating ([5]; 16 g ai/ha, 0 to 100 scale): 0 | Kochia plant response rating (0-100) [5, 28]: 20 | Oat, Wild plant response rating ([6]; 16 g ai/ha, 0 to 100 scale): 20 | Oat, Wild plant response rating (0-100) [6, 28]: 30 | Ragweed plant response rating ([7]; 16 g ai/ha, 0 to 100 scale): 0 | Ragweed plant response rating (0-100) [7, 28]: 0 | Ryegrass, Italian plant response rating ([8]; 16 g ai/ha, 0 to 100 scale): 0 | Ryegrass, Italian plant response rating (0-100) [8, 28]: 90 | Soybean plant response rating ([9]; 16 g ai/ha, 0 to 100 scale): 20 | Soybean plant response rating (0-100) [9, 28]: 20 | Wheat plant response rating ([10]; 16 g ai/ha, 0 to 100 scale): 10 | Wheat plant response rating (0-100) [10, 28]: 90 | Barnyardgrass plant response rating (0-100) [11, 29]: 100 | Barnyardgrass plant response rating (0 to 100 scale) [11, 30]: 100 | Blackgrass plant response rating (0-100) [12, 29]: 100 | Blackgrass plant response rating (0 to 100 scale) [12, 30]: 90 | Corn plant response rating (0-100) [13, 29]: 100 | Corn plant response rating (0 to 100 scale) [13, 30]: 100 | Galium plant response rating (0-100) [14, 29]: 80 | Galium plant response rating (0 to 100 scale) [14, 30]: 70 | Foxtail, Green plant response rating (0-100) [15, 29]: 90 | Foxtail, Green plant response rating (0 to 100 scale) [15, 30]: 90 | Horseweed plant response rating (0-100) [16, 29]: 90 | Horseweed plant response rating (0 to 100 scale) [16, 30]: 70 | Kochia plant response rating (0-100) [17, 29]: 90 | Kochia plant response rating (0 to 100 scale) [17, 30]: 90 | Oat, Wild plant response rating (0-100) [18, 29]: 90 | Oat, Wild plant response rating (0 to 100 scale) [18, 30]: 30 | Pigweed, Palmer plant response rating (0-100) [19, 29]: 90 | Pigweed, Palmer plant response rating (0 to 100 scale) [19, 30]: 70 | Ragweed plant response rating (0-100) [20, 29]: 70 | Ragweed plant response rating (0 to 100 scale) [20, 30]: 40 | Ryegrass, Italian plant response rating (0-100) [21, 29]: 90 | Ryegrass, Italian plant response rating (0 to 100 scale) [21, 30]: 40 | Soybean plant response rating (0-100) [22, 29]: 80 | Soybean plant response rating (0 to 100 scale) [22, 30]: 60 | Wheat plant response rating (0-100) [23, 29]: 90 | Wheat plant response rating (0 to 100 scale) [23, 30]: 80 | Plant response rating, Barnyardgrass (0 to 100 scale, 0 is no effect and 100 is complete control) [24]: 90 | Plant response rating, Ducksalad (0 to 100 scale, 0 is no effect and 100 is complete control) [25]: 65 | Plant response rating, Rice (0 to 100 scale, 0 is no effect and 100 is complete control) [26]: 65 | Plant response rating, Sedge, Umbrella (0 to 100 scale, 0 is no effect and 100 is complete control) [27]: 95
